Test results published in US8883745B2, “C—glycolipids with enhanced Th-1 profile” (New York University, priority 2006, dated 2014).

Columns and labels:
[1] = test system: IL-4; assay: IL-4 levels in sera upon i.v. glycolipid administration to C57BL/6 mice (ELISA); format: in vivo; design: unit not given here; conditions: for IL-4 level, Total: total over hours 0-72
Protocol: (§1) Five- to six-week-old female C57BL/6 mice and BALB/c mice were purchased from Taconic. Each glycolipid was stored at 1 mg/ml in 100% DMSO. Mice were injected intravenously with 1 μg of each glyocolipid diluted in 200 μL sterile phosphate buffered saline (PBS). At indicated time points, sera were collected from each animal, and concentrations of IFN-γ, IL-4, and IL-12 in the sera were evaluated by enzyme-linked immunosorbent assay (ELISA). Serum concentrations of IFN-γ, IL-4, and IL-12 were evaluated using an ELISA kit (eBioscience, San Diego, Calif.). Briefly, 96 well flat-bottom ELISA plates (NUNC) were coated with capture antibody according to the manufacture's recommendation and incubated overnight at 4° C. The plates were washed with PBS+0.05% Tween 20 (PBS-T), then incubated with manufacturer provided blocking solution for 1 hr at room temperature to block non-specific binding sites. After washing with PBS-T, sera diluted 1:10 was added to the wells and incubated for 2 hrs at room temperature. Plates were then incubated at room temperature for 1 hr with biotintylated detection antibody, washed, incubated with avidin conjugated to horse radish peroxidase (HRP) for 30 min at room temperature, washed, and finally incubated with tetramethylbenzidine substrate solution in the dark for 10 minutes at room temperature. The antibodies, avidin-HRP, and substrate solution were all diluted according to the manufacture's recommendation. Reactions were stopped with 2.0N sulfuric acid and the cytokine concentration in each well was determined by comparing the absorbance at 450 nm in each well to known standards. The levels of Th1- and Th2-type cytokines were determined in two different genetic backgrounds, i.e., in C57BL/6 mice and BALB/c mice. The following compounds were administered: A=compound (A-1 trans-conformer), B=compound (A-2), C=compound (A-3), D=compound (A-4), E=compound (A-5), Z=control (PBS alone), CRONY=α-C-GalCer, KRN=α-GalCer, GCK109 (A-1 trans-conformer), GCK151 (A-1 cis-conformer), GCK152 (A-7). The levels of cytokines were measured at 0, 2, 6, 12, 24, 48, and 72 hours after the compound administration. The levels of Th1-type cytokines IFN-γ and IL-12 are summarized in FIGS. 2A-C and 3A-C, respectively. Table 7 provides IFN-γ/IL-4 and IL-12/IL-4 ratios for various compounds, which can be used as indicators of their ability to selectively stimulate Th1-type immune responses.

[2] = test system: IL-12; assay: IL-12 levels in sera upon i.v. glycolipid administration to BALB/c mice (ELISA); format: in vivo; design: IL-12 levels, test 1 / IL-12 levels, test 2 / IL-12 levels, average / IL-12 levels, Total: unit not given here; conditions: for IL-12/IL-4 (BALB/c): ratio calculated from Tables 1-6; for IL-12 levels, average / IL-12 levels, test 1 / IL-12 levels, test 2 / IL-12 levels, Total: serum; for IL-12 levels, Total: total over hours 0-72
Protocol: as §1

CCCCCCCCCCCCCCCCCC/C=C/CCCCCCCCC(=O)N[C@@H](/C=C/[C@H]1O[C@H](CO)[C@H](O)[C@H](O)[C@H]1O)[C@H](O)[C@H](O)CCCCCCCCCCCCCC [A-1]
IL-4 level, average ([1]; hour 0): 46 | IL-4 level, test 1 ([1]; hour 0): 46 | IL-4 level, test 2 ([1]; hour 0): 46 | IL-4 level, average ([1]; hour 2): 1088 | IL-4 level, test 1 ([1]; hour 2): 914 | IL-4 level, test 2 ([1]; hour 2): 1262 | IL-4 level, average ([1]; hour 6): 109 | IL-4 level, test 1 ([1]; hour 6): 90 | IL-4 level, test 2 ([1]; hour 6): 128 | IL-4 level, average ([1]; hour 12): 55 | IL-4 level, test 1 ([1]; hour 12): 44 | IL-4 level, test 2 ([1]; hour 12): 66 | IL-4 level, average ([1]; hour 24): 56.5 | IL-4 level, test 1 ([1]; hour 24): 57 | IL-4 level, test 2 ([1]; hour 24): 56 | IL-4 level, average ([1]; hour 48): 44 | IL-4 level, test 1 ([1]; hour 48): 47 | IL-4 level, test 2 ([1]; hour 48): 41 | IL-4 level, average ([1]; hour 72): 88 | IL-4 level, test 1 ([1]; hour 72): 61 | IL-4 level, test 2 ([1]; hour 72): 115 | IL-4 level, Total [1]: 1487 | IL-12/IL-4 (BALB/c) [2]: 21 | IL-12 levels, average ([2]; hour 0): 5 | IL-12 levels, test 1 ([2]; hour 0): 5 | IL-12 levels, test 2 ([2]; hour 0): 5 | IL-12 levels, average ([2]; hour 2): 119.5 | IL-12 levels, test 1 ([2]; hour 2): 0 | IL-12 levels, test 2 ([2]; hour 2): 239 | IL-12 levels, average ([2]; hour 6): 6981 | IL-12 levels, test 1 ([2]; hour 6): 7064 | IL-12 levels, test 2 ([2]; hour 6): 6898 | IL-12 levels, average ([2]; hour 12): 7001 | IL-12 levels, test 1 ([2]; hour 12): 7513 | IL-12 levels, test 2 ([2]; hour 12): 6489 | IL-12 levels, average ([2]; hour 24): 306 | IL-12 levels, test 1 ([2]; hour 24): 299 | IL-12 levels, test 2 ([2]; hour 24): 313 | IL-12 levels, average ([2]; hour 48): 0 | IL-12 levels, test 1 ([2]; hour 48): 0 | IL-12 levels, test 2 ([2]; hour 48): 0 | IL-12 levels, average ([2]; hour 72): 48.5 | IL-12 levels, test 1 ([2]; hour 72): 0 | IL-12 levels, test 2 ([2]; hour 72): 97 | IL-12 levels, Total [2]: 14462

CCCCCCCCCCCCCCCCCCCCCCCCCCCCC(=O)N[C@@H](/C=C/[C@H]1O[C@H](CO)[C@H](O)[C@H](O)[C@H]1O)[C@H](O)[C@H](O)CCCCCCCCCCCCCC [A-2, (3S,4S,5R)-1-C-(α-D-galactopyranosyl)-3-(N-nonacosanoylamino)-4,5-nonadec-(1,2-E)-enediol]
IL-4 level, average ([1]; hour 0): 46 | IL-4 level, test 1 ([1]; hour 0): 46 | IL-4 level, test 2 ([1]; hour 0): 46 | IL-4 level, average ([1]; hour 2): 443 | IL-4 level, test 1 ([1]; hour 2): 286 | IL-4 level, test 2 ([1]; hour 2): 600 | IL-4 level, average ([1]; hour 6): 110 | IL-4 level, test 1 ([1]; hour 6): 95 | IL-4 level, test 2 ([1]; hour 6): 125 | IL-4 level, average ([1]; hour 12): 56.5 | IL-4 level, test 1 ([1]; hour 12): 45 | IL-4 level, test 2 ([1]; hour 12): 68 | IL-4 level, average ([1]; hour 24): 52 | IL-4 level, test 1 ([1]; hour 24): 46 | IL-4 level, test 2 ([1]; hour 24): 58 | IL-4 level, average ([1]; hour 48): 56 | IL-4 level, test 1 ([1]; hour 48): 60 | IL-4 level, test 2 ([1]; hour 48): 52 | IL-4 level, average ([1]; hour 72): 61.5 | IL-4 level, test 1 ([1]; hour 72): 59 | IL-4 level, test 2 ([1]; hour 72): 64 | IL-4 level, Total [1]: 826 | IL-12/IL-4 (BALB/c) [2]: 30 | IL-12 levels, average ([2]; hour 0): 5 | IL-12 levels, test 1 ([2]; hour 0): 5 | IL-12 levels, test 2 ([2]; hour 0): 5 | IL-12 levels, average ([2]; hour 2): 74 | IL-12 levels, test 1 ([2]; hour 2): 141 | IL-12 levels, test 2 ([2]; hour 2): 7 | IL-12 levels, average ([2]; hour 6): 7251.5 | IL-12 levels, test 1 ([2]; hour 6): 7080 | IL-12 levels, test 2 ([2]; hour 6): 7423 | IL-12 levels, average ([2]; hour 12): 10800 | IL-12 levels, test 1 ([2]; hour 12): 11600 | IL-12 levels, test 2 ([2]; hour 12): 10000 | IL-12 levels, average ([2]; hour 24): 442.5 | IL-12 levels, test 1 ([2]; hour 24): 454 | IL-12 levels, test 2 ([2]; hour 24): 431 | IL-12 levels, average ([2]; hour 48): 66.5 | IL-12 levels, test 1 ([2]; hour 48): 0 | IL-12 levels, test 2 ([2]; hour 48): 133 | IL-12 levels, average ([2]; hour 72): 222.5 | IL-12 levels, test 1 ([2]; hour 72): 3 | IL-12 levels, test 2 ([2]; hour 72): 442 | IL-12 levels, Total [2]: 18864
